Test results published in patent US20240269337A1, “METHOD AND SYSTEM FOR COATING FILTER MEDIA” (MOLECULAR PLASMA GROUP SA, priority 2021, published 2024).
Where two headings read alike, the source gives them in different places.

Tested on: Bacteriophage MS2
Type: cell-based
Conditions: for LOG Reduction: plasma coating of precursor on Tyvek substrate, (LOD) = limit of detection

For `C=CC(=O)NCCC[N+](C)(C)C.[Cl-]` [APTAC, (3-Acrylamidopropyl)trimethylammonium chloride], the “LOG Reduction” value was 2.1 log.
`CCCCCCCCCCCCCCCCCC[N+](C)(C)CCC[Si](OC)(OC)OC.[Cl-]` [SiQAM, Dimethyloctadecyl[3-(trimethoxysilyl)propyl] ammonium chloride] was tested, and the “LOG Reduction” value was 1.56 log.
“Benzalkonium chloride [reference compound]” was tested, and the “LOG Reduction” value was >3.8 (LOD) log.
For Citric Acid, the “Avg. MS2 (log red)” value (Filter media sample, 6 passes) was 2.15 log red, the “MS2 neutralized (%)” value (Filter media sample, 6 passes) was 99.29% and the “Avg. MS2 (log red)” value (Filter media sample, 10 passes) was 2.72 log red. The “MS2 neutralized (%)” value (Filter media sample, 10 passes) was 99.81%, the “Avg. MS2 (log red)” value (Filter media sample, 20 passes) was 2.46 log red and the “MS2 neutralized (%)” value (Filter media sample, 20 passes) was 99.65%. The “Avg. MS2 (log red)” value (Outer wave sample, 6 passes) was 2.13 log red, the “MS2 neutralized (%)” value (Outer wave sample, 6 passes) was 99.26% and the “Avg. MS2 (log red)” value (Outer wave sample, 10 passes) was 1.96 log red. For the same compound, the “MS2 neutralized (%)” value (Outer wave sample, 10 passes) was 98.90%, the “Avg. MS2 (log red)” value (Outer wave sample, 20 passes) was 2.71 log red and the “MS2 neutralized (%)” value (Outer wave sample, 20 passes) was 99.81%. The “LOG Reduction” value was >5.0 (LOD) log.
